For assay [1], the target named is T1, JAK2 (Homo sapiens, UniProt O60674).
T1 construct: endogenous in cells; host or cells: Molt4 (ATCC CRL-1582) and Ramos (ATCC CRL-1596), mixed lysate 1:2
Kind of assay: Kinobeads assay, JAK2 (competition binding in mixed Molt4/Ramos cell lysate, dot blot detection). To be noted: read-out: JAK2 Band (Kinobeads assay potency, IC50). In a few lines: (§1)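 JAK2 and TYK2 retained on Kinobeads (immobilized aminopyrido-pyrimidine ligand) from 1:2 Molt4:Ramos lysate (10 mg/mL) were quantified by antibody dot blot (Odyssey infrared) after 3 h cold incubation with compound. Nine-step 1:3 dilution series; IC50 calculated from curves.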

The target in assay [2] is T2, TYK2 (Homo sapiens, UniProt P29597).
T2 construct: endogenous in cells; host or cells: Molt4 (ATCC CRL-1582) and Ramos (ATCC CRL-1596), mixed lysate 1:2
T2 sequence (P29597 whole entry): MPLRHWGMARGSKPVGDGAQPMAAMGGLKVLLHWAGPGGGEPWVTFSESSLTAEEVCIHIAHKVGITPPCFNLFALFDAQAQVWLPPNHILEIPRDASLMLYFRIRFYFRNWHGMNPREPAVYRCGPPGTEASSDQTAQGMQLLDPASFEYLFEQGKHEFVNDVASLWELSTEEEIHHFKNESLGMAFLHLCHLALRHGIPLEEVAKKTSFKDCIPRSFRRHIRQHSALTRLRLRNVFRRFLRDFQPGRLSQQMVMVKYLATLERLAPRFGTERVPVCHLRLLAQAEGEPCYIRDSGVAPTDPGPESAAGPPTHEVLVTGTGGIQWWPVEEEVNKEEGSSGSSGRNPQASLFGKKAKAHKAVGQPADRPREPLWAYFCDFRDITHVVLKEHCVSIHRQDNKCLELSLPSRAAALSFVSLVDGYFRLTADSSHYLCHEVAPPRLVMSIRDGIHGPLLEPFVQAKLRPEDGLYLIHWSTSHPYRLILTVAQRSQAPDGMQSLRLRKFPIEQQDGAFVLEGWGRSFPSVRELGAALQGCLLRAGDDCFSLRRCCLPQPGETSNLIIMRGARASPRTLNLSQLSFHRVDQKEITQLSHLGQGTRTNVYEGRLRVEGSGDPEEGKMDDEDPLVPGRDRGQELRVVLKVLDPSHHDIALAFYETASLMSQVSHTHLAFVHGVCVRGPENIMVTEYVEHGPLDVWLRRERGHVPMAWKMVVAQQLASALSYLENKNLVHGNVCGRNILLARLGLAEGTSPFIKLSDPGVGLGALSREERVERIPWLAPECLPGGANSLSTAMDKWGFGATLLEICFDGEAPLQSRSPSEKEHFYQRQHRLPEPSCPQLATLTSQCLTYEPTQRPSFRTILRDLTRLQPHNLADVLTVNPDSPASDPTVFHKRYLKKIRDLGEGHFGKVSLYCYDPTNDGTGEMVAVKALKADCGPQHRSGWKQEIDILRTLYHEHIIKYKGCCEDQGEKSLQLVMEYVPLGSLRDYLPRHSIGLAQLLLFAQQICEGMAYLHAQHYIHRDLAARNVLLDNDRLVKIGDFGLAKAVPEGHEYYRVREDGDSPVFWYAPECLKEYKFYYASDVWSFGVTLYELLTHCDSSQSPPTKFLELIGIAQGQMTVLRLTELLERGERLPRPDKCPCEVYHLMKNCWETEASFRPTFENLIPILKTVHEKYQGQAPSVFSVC
Kind of assay: Kinobeads assay, TYK2 (competition binding in mixed Molt4/Ramos cell lysate, dot blot detection). The settings on record: Kinobeads assay, Molt4/Ramos lysate; read-out: TYK2 Band (Kinobeads assay potency, IC50). In outline:
as §1

SMILES strings stand for the structures.

The values below come from patent US9296725B2, “Heterocyclyl pyrimidine analogues as TYK2 inhibitors” (Cellzome Limited, priority 2012, dated 2016).

T1 sequence (O60674 whole entry): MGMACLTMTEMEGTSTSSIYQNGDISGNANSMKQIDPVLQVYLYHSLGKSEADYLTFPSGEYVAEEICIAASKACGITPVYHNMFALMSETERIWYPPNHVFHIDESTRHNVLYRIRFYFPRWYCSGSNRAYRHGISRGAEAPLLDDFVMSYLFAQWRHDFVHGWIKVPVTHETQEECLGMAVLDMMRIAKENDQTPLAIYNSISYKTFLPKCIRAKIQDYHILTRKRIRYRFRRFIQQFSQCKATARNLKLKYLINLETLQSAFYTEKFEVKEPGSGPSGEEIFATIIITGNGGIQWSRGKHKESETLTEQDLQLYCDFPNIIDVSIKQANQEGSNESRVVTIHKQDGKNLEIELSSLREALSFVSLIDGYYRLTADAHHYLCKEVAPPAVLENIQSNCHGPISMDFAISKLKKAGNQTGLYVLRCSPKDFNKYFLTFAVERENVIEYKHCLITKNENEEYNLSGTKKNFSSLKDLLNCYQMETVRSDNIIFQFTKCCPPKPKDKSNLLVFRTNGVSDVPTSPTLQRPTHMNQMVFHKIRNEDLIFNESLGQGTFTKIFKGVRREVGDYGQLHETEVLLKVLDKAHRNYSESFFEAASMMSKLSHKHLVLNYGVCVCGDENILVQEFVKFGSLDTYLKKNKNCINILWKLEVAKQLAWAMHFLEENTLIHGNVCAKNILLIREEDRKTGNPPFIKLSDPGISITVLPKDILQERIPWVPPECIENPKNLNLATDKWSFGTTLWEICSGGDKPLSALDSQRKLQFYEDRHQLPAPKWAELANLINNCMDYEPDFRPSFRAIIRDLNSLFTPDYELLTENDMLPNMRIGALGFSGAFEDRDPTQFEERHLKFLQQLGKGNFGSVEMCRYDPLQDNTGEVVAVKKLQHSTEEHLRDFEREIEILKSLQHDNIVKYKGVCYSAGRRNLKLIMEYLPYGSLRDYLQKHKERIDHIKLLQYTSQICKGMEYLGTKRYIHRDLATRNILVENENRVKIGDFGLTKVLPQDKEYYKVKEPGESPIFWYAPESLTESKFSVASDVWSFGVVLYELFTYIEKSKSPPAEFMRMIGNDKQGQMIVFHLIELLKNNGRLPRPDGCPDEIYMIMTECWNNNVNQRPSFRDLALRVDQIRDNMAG

Take `O=C(Cn1cc(Nc2ncc(Cl)c(NCc3ccccc3)n2)cn1)N1CCNCC1` [Example I-187]: the 50% inhibitory concentration (IC50) in assay [1] was 100 to 1000 nM; in assay [2] it was 10 to 100 nM.
Taken in the same sequence, the figures for `O=C(Cn1cc(Nc2ncc(Cl)c(NCc3ccccc3)n2)cn1)N1CC2COCC2C1` (stereo not drawn) [Example I-188] were 1000 to 10000 nM and 10 to 100 nM.
On the same counts, the results for `CNC(=O)Cn1cc(Nc2ncc(Cl)c(NCc3cc(F)cc(C(F)(F)F)c3)n2)cn1` [Example I-189] are 1000 to 10000 nM and 100 to 1000 nM.
On the same counts, the results for `CNC(=O)Cn1cc(Nc2ncc(Cl)c(NCc3cc(F)cc(F)c3)n2)cn1` [Example I-190] are 100 to 1000 nM and 100 to 1000 nM.
Regarding `OCCn1cc(Nc2ncc(Cl)c(NCc3ccccc3C(F)(F)F)n2)cn1` [Example I-191], the half-inhibitory concentration (IC50) is 1000 to 10000 nM in assay [1] and 100 to 1000 nM in assay [2].
On the same counts, the results for `OCCn1cc(Nc2ncc(Cl)c(NCc3ccccc3)n2)cn1` [Example I-192] are 100 to 1000 nM and 10 to 100 nM.
On the same counts, the results for `OCCn1cc(Nc2ncc(F)c(NCc3ccccc3)n2)cn1` [Example I-193] are 1000 to 10000 nM and 100 to 1000 nM.
Taken in the same sequence, the figures for `O=C(Cn1cc(Nc2ncc(Cl)c(NCc3ccccc3)n2)cn1)N1CC2CCC1CN2` (stereo not drawn) [Example I-194] were 100 to 1000 nM and 10 to 100 nM.
For `CNC(=O)Cn1cc(Nc2ncc(Cl)c(NCc3ccccc3)n2)cn1` [Example I-195], the concentration for half-maximal inhibition (IC50) in assay [1] is 1000 to 10000 nM; in assay [2] it was 100 to 1000 nM.
On the same counts, the results for `O=C(Cn1cc(Nc2ncc(Cl)c(NCc3ccccc3)n2)cn1)N1CCCC1` [Example I-196] are 1000 to 10000 nM and 10 to 100 nM.
Taken in the same sequence, the figures for `CC(C)(C)OC(=O)N1CC2CCC1CN2C(=O)Cn1cc(Nc2ncc(Cl)c(NCc3ccccc3)n2)cn1` (stereo not drawn) [Example I-197] were 1000 to 10000 nM and 100 to 1000 nM.
On the same counts, the results for `Cn1cc(Nc2ncc(Cl)c(NCc3cccc(S(N)(=O)=O)c3)n2)cn1` [Example I-198] are 1000 to 10000 nM and 100 to 1000 nM.
Turning to `NS(=O)(=O)c1cccc(CNc2nc(Nc3cnn(CCO)c3)ncc2Cl)c1` [Example I-199], the 50% inhibitory concentration (IC50) lay in the range of 1000 to 10000 nM in assay [1] and 100 to 1000 nM in assay [2].
Taken in the same sequence, the figures for `CNS(=O)(=O)c1cccc(CNc2nc(Nc3cnn(C)c3)ncc2Cl)c1` [Example I-200] were 1000 to 10000 nM and 100 to 1000 nM.
On the same counts, the results for `Clc1cnc(Nc2cn[nH]c2)nc1NCc1ccccc1` [Example I-201] are 1000 to 10000 nM and 100 to 1000 nM.
Taken in the same sequence, the figures for `OCCn1cc(Nc2ncc(F)c(NCc3c(F)ccc(F)c3F)n2)cn1` [Example I-202] were 100 to 1000 nM and not above 10 nM.
In the case of `OCCn1cc(Nc2ncc(F)c(NCc3cc(F)ccc3F)n2)cn1` [Example I-203], the results for the IC50 in assay [1] and in assay [2] were 10 to 100 nM and not above 10 nM, respectively.
On the same counts, the results for `OCCn1cc(Nc2ncc(F)c(NCc3c(F)cccc3F)n2)cn1` [Example I-204] are 1000 to 10000 nM and not above 10 nM.
On the same counts, the results for `OCCn1cc(Nc2ncc(F)c(NCc3ccccc3F)n2)cn1` [Example I-205] are 1000 to 10000 nM and 10 to 100 nM.
On the same counts, the results for `NC(=O)Cn1cc(Nc2ncc(Cl)c(NCc3ccccc3)n2)cn1` [Example I-206] are 100 to 1000 nM and 100 to 1000 nM.
As for `CC(C)(C)OC(=O)N1CCN(C(=O)Cn2cc(Nc3ncc(Cl)c(NCc4ccccc4)n3)cn2)CC1` [Example I-207], the IC50 is more than 10000 nM in assay [1] and 100 to 1000 nM in assay [2].
For `CNC(=O)Cn1cc(Nc2ncc(Cl)c(NCc3cccc(F)c3F)n2)cn1` [Example I-208], the concentration for half-maximal inhibition (IC50) in assay [1] and in assay [2] was 100 to 1000 nM in each case.
As for `CC(O)Cn1cc(Nc2ncc(Cl)c(NCc3c(F)cccc3F)n2)cn1` (stereo not drawn) [Example I-209], the figures for the 50% inhibitory concentration (IC50) in assay [1] and in assay [2] were 1000 to 10000 nM and 10 to 100 nM, respectively.
On the same counts, the results for `OCCn1cc(Nc2ncc(F)c(NCc3cccc(F)c3)n2)cn1` [Example I-210] are 100 to 1000 nM and 10 to 100 nM.
For the compound `CNC(=O)Cn1cc(Nc2ncc(Cl)c(NCc3ccccc3F)n2)cn1` [Example I-211], the 50% inhibitory concentration (IC50) in assay [1] and in assay [2] was 100 to 1000 nM throughout.
For the compound `CNC(=O)Cn1cc(Nc2ncc(Cl)c(NCc3cccc(F)c3)n2)cn1` [Example I-212], the IC50 in assay [1] and in assay [2] was 100 to 1000 nM each time.
Turning to `CC(O)Cn1cc(Nc2ncc(Cl)c(NCc3ccccc3F)n2)cn1` (stereo not drawn) [Example I-213], the IC50 in assay [1] and in assay [2] was 100 to 1000 nM throughout.
As for `CC(O)Cn1cc(Nc2ncc(Cl)c(NCc3cccc(F)c3)n2)cn1` (stereo not drawn) [Example I-214], the concentration for half-maximal inhibition (IC50) in assay [1] fell in the range of 1000 to 10000 nM; in assay [2], 100 to 1000 nM.
For `CC(O)Cn1cc(Nc2ncc(Cl)c(NCc3cccc(F)c3F)n2)cn1` (stereo not drawn) [Example I-215], the IC50 in assay [1] and in assay [2] was 100 to 1000 nM in each case.
Consider `CC(O)Cn1cc(Nc2ncc(Cl)c(NCc3ccccc3)n2)cn1` (stereo not drawn) [Example I-216], for which the IC50 in assay [1] is 1000 to 10000 nM; in assay [2], 100 to 1000 nM.
Taken in the same sequence, the figures for `CN(C)C(=O)Cn1cc(Nc2ncc(Cl)c(NCc3ccccc3)n2)cn1` [Example I-217] were 1000 to 10000 nM and 100 to 1000 nM.
On the same counts, the results for `Cn1cc(Nc2ncc(Cl)c(NCc3cc(Br)ccc3F)n2)cn1` [Example I-218] are 100 to 1000 nM and 100 to 1000 nM.
On the same counts, the results for `OCCn1cc(Nc2ncc(Cl)c(NCc3ccc(O)cc3)n2)cn1` [Example I-219] are 100 to 1000 nM and 10 to 100 nM.
With `CC(C)(C)OC(=O)N1CC2(CN(C(=O)Cn3cc(Nc4ncc(Cl)c(NCc5ccccc5)n4)cn3)C2)C1` [Example I-220], the half-inhibitory concentration (IC50) in assay [1] was in the range of 1000 to 10000 nM; in assay [2], 100 to 1000 nM.
On the same counts, the results for `CN(C)CCNC(=O)Cn1cc(Nc2ncc(Cl)c(NCc3ccccc3)n2)cn1` [Example I-221] are 100 to 1000 nM and 100 to 1000 nM.
On the same counts, the results for `O=C(O)Cn1cc(Nc2ncc(Cl)c(NCc3ccccc3)n2)cn1` [Example I-222] are 1000 to 10000 nM and 100 to 1000 nM.
As for `Fc1ccc(F)c(CNc2nc(Nc3cnn(C(F)F)c3)ncc2Cl)c1` [Example I-223], the IC50 in assay [1] and in assay [2] was 100 to 1000 nM each time.
With `Fc1cccc(F)c1CNc1nc(Nc2cnn(C(F)F)c2)ncc1Cl` [Example I-224], the results for the 50% inhibitory concentration (IC50) in assay [1] and in assay [2] were 1000 to 10000 nM and 100 to 1000 nM, respectively.
For the compound `CCOC(=O)Cn1cc(Nc2ncc(Cl)c(NCc3ccccc3)n2)cn1` [Example I-225], the figures for the 50% inhibitory concentration (IC50) in assay [1] and in assay [2] were 1000 to 10000 nM and 100 to 1000 nM, respectively.
With `NS(=O)(=O)c1ccc(F)c(CNc2nc(Nc3cnn(CCO)c3)ncc2Cl)c1` [Example I-226], the IC50 in assay [1] lay within 1000 to 10000 nM; in assay [2] it was 10 to 100 nM.
On the same counts, the results for `COc1ccccc1CNc1nc(Nc2cnn(C)c2)ncc1Cl` [Example I-228] are 1000 to 10000 nM and 100 to 1000 nM.
On the same counts, the results for `CNC(=O)Cn1cc(Nc2ncc(Cl)c(NCc3c(F)cccc3F)n2)cn1` [Example I-229] are 1000 to 10000 nM and 10 to 100 nM.
Take `CNC(=O)Cn1cc(Nc2ncc(Cl)c(NCc3cccc(C#N)c3)n2)cn1` [Example I-230]: the 50% inhibitory concentration (IC50) in assay [1] was 1000 to 10000 nM; in assay [2] it was 10 to 100 nM.
Consider `[2H]C([2H])(O)C([2H])([2H])n1cc(Nc2ncc(Cl)c(NCc3ccccc3)n2)cn1` [Example I-231], for which the half-maximal inhibitory concentration (IC50) is 1000 to 10000 nM in assay [1] and 100 to 1000 nM in assay [2].
Taken in the same sequence, the figures for `[2H]C([2H])(O)C([2H])([2H])n1cc(Nc2ncc(Cl)c(NCc3cccc(F)c3)n2)cn1` [Example I-232] were 1000 to 10000 nM and 100 to 1000 nM.
Taken in the same sequence, the figures for `[2H]C([2H])(O)C([2H])([2H])n1cc(Nc2ncc(Cl)c(NCc3cccc(F)c3F)n2)cn1` [Example I-233] were 1000 to 10000 nM and 100 to 1000 nM.
On the same counts, the results for `[2H]C([2H])(O)C([2H])([2H])n1cc(Nc2ncc(Cl)c(NCc3c(F)cccc3F)n2)cn1` [Example I-234] are 100 to 1000 nM and 10 to 100 nM.
As to `[2H]C([2H])(O)C([2H])([2H])n1cc(Nc2ncc(Cl)c(NCc3cccc(OC)c3)n2)cn1` [Example I-235], the figures for the IC50 in assay [1] and in assay [2] were 1000 to 10000 nM and 100 to 1000 nM, respectively.
In the case of `O=C(Cn1cc(Nc2ncc(Cl)c(NCc3ccccc3)n2)cn1)N1CC2(COC2)C1` [Example I-236], the IC50 lay in the range of 1000 to 10000 nM in assay [1] and 100 to 1000 nM in assay [2].
For the compound `N#CC1CCCN1C(=O)Cn1cc(Nc2ncc(Cl)c(NCc3ccccc3)n2)cn1` (stereo not drawn) [Example I-237], the half-inhibitory concentration (IC50) in assay [1] is 100 to 1000 nM; in assay [2], 10 to 100 nM.
On the same counts, the results for `CN(CC#N)C(=O)Cn1cc(Nc2ncc(Cl)c(NCc3ccccc3)n2)cn1` [Example I-238] are 1000 to 10000 nM and 100 to 1000 nM.
Taken in the same sequence, the figures for `O=C(Cn1cc(Nc2ncc(Cl)c(NCc3ccccc3)n2)cn1)N1CCC2(CC1)COC2` [Example I-239] were 1000 to 10000 nM and 100 to 1000 nM.
On the same counts, the results for `NC(=O)Cn1cc(Nc2ncc(Cl)c(NCc3c(F)cccc3F)n2)cn1` [Example I-240] are 1000 to 10000 nM and 10 to 100 nM.
With `CCNC(=O)c1cccc(CNc2nc(Nc3cnn(CCO)c3)ncc2Cl)c1` [Example I-241], the IC50 in assay [1] lay in the range of 1000 to 10000 nM; in assay [2], 100 to 1000 nM.
For `N#CCNC(=O)c1cccc(CNc2nc(Nc3cnn(CCO)c3)ncc2Cl)c1` [Example I-242], the IC50 in assay [1] was 1000 to 10000 nM; in assay [2] it was 100 to 1000 nM.
Regarding `CNC(=O)Cn1cc(Nc2ncc(Cl)c(NCc3cccc(OC)c3)n2)cn1` [Example I-243], the half-inhibitory concentration (IC50) in assay [1] was 1000 to 10000 nM; in assay [2] it was 100 to 1000 nM.
Taken in the same sequence, the figures for `COc1cccc(CNc2nc(Nc3cnn(CC(=O)N(C)C)c3)ncc2Cl)c1` [Example I-244] were 1000 to 10000 nM and 100 to 1000 nM.
